“Also recorded” adds a separate entry of the source.
Experiments:
SK-Mel-2 = assay: Migration assay (Boyden chambers) in SK-Mel-2; format: cell-based, human; details: for cell migration: 50 μM agonist
Method: (§1) Cell Culture—SK-Mel-2 and SK-Mel-24 (ATCC) cell lines were cultured in Eagle's Minimum Essential Medium supplemented with 10% fetal bovine serum at 37° C./5% CO2. HEMA-LP human melanocytes (Cascade Biologics) were maintained in Medium 254 with Human Melanocyte Growth Supplement (Cascade Biologics).
(§2) Adenoviral Overexpression—Recombinant adenoviruses containing human LacZ, Epac1 or Epac2 were constructed (Adeno-X Expression System, Clontech). Human Epac1 and Epac2 cDNA were kindly provided by Dr. J. L Bos (University Medical Center, Utrecht, Netherlands). Adenovirus of PKA alpha subunit was purchased from Vector Biolabs. The corresponding encoding sequence was cloned in topShuttle2 (Clontech) to obtain a mammalian expression cassette, which was then excised and ligated into BD Adeno-X Viral DNA. The recombinant vector was introduced into human embryonic kidney cells (HEK293) to recover infectious adenovirus. Viruses were propagated in HEK293 cells, and purified by BD Adeno-X Virus Purification Kits. Viral titer was determined by Adeno-X Rapid Titer Kit (Clontech). As a control study, adenovirus vector harboring LacZ was used at the same MOI. Cells were infected with adenovirus for 24 hand subjected to each experiment. In some experiments (For HS production and NDST-1 expression, FIGS. 5B, 5C, 5D, 5E, 5F and 5G), cells were further incubated for 48 h in medium without adenovirus followed by each experiment.
(§3) Migration assay—Migration assay was performed using methods previously known in the art using the Boyden chambers (pore size 8 μm, BD Biosciences). The upper chamber's polycarbonate insert film parts were coated by 75 μl fibronectin (50 μg/ml in PBS, Biosciences). Cultured cells were detached and the number of the cells was adjusted to 1×10^3 cells/μl of media. One-hundred micro liter of the cell suspension was applied to the center of the upper chamber and then attached to the lower chamber. Thereafter, the cells were incubated in CO2 incubator at 37° C. for 3 h unless specified. After fixation with 10% formalin neutral solution, cells were stained with Diff-Quick kit (Dade Behring). After mechanical removing of the cells on the upper surface of the membrane with a cotton swab, cells that migrated onto the lower surface of the membrane were counted. Pictures were taken with a microscope followed by counting migrated cells with Image J software in randomly chosen 10 fields.
Transfection of siRNA—Epac1 siRNA (Ambion), syndecan-2 siRNA (Ambion) and NDST-1 siRNA (QIAGEN) were transfected into subconfluent SK-Mel-2 cells using Lipofectamine 2000 (Invitrogen). For Epac1, a pool of double-stranded siRNAs containing equal parts of the following antisense sequence was used: 5′-AUCACUGUAUACCGGUUCC-3′ (SEQ ID NO: 1). For syndecan-2, a pool of double-stranded siRNAs containing equal parts of the following antisense sequence was used: 5′-CUCUGGACUCUCUACAUCC-3′ (SEQ ID NO: 2). For NDST-1, a pool of double-stranded siRNAs containing equal parts of the following antisense sequence was used: 5′-UUUAUUAGCAGUUAGUUCG-3′ (SEQ ID NO: 3). The corresponding non-targeting siRNA Silencer negative Control #2 siRNA (AM4613, Ambion) was used as a negative control. Twenty-four hours later, the medium containing siRNA was changed to fresh medium and incubated for 72 h. When siRNA transfection was combined with adenoviral infection, siRNA transfection followed the adenoviral infection.

tubulin = assay: Immunocytochemical staining with tubulin in SK-Mel-2; format: cell-based, human; details: SK-Mel-2 overexpressing Epac1; NCD 10 μM for 3 h; FIG. 3C
Method: (§4) Immunocytochemistry—Immunocytochemistry was performed using methods previously known in the art. SK-Mel-2 on glass coverslips were fixed, washed and permeabilized with 0.02% Triton-X followed by incubation with primary and secondary antibodies for 30 min at room temperature. Alexa Fluor 488- and 594-conjugated goat anti-rabbit or anti-mouse antibodies (Molecular Probes) were used. The pictures were taken with a digital camera operated on a Nikon Eclipse TE200 or a confocal microscope (Zeiss Axiovert 100M). For mounting media, Prolong-Gold antifade with DAPI (Molecular Probes) was used.

[1] = test system: syndecan-2 in lipid rafts-rich fraction; assay: Immunoblot for syndecan-2 in lipid rafts-rich fraction (sucrose density gradient) of SK-Mel-2; format: cell-based, human; details: SK-Mel-2 overexpressing Epac1; 10 μM NCD for 3 h; FIG. 3E
Method: Western Blotting—Western blot analysis was performed using methods previously known in the art. Cells were lysed and sonicated in lysis buffer containing 25 mM Tris-HCl (pH7.5), 150 mM NaCl, 5 mM MgCl2, 1% NP-40, 1 mM DTT, 5% glycerol, phosphatase inhibitor (Sigma), protease inhibitor cocktail (Sigma) and 1 mM NaF. Equal amounts of protein (20 μg) were subjected to SDS-PAGE. After protein separation by electrophoresis, samples were transferred to Millipore Immobilon-P membrane and immunoblotting with antibodies was performed. Signal intensities of the bands were quantified with Image J software (NIH). Sucrose density gradient centrifugation—Lipid rafts-enriched membrane fractions were prepared using methods previously known in the art. Briefly, SK-Mel-2 cells were homogenated in 2 ml of 500 mM sodium carbonate (pH 11.0) with protease inhibitors (1 μg/ml leupeptin, 0.1 mM PMSF and 50 U/ml egg white trypsin inhibitor) and lysed by sonication. The lysate was then adjusted to 45% sucrose by mixing with 2 ml of 90% sucrose prepared in MBS buffer (25 mM 2-Morpholinoethanesulfonic acid (MES), pH 6.5, […]) and placed at the bottom of 5% and 35% discontinuous sucrose gradient (in MBS buffer containing 100 mM sodium carbonate) for an overnight ultra-centrifugation (260,000 g). Fractions were removed sequentially from the top and designated as fractions 1 through 13. […]

[2] = test system: syndecan-2 colocalization with lipid rafts; assay: Immunocytochemical staining of syndecan-2 and lipid rafts in SK-Mel-2; format: cell-based, human; details: for Epac1-induced syndecan-2 colocalization with lipid rafts: SK-Mel-2 overexpressing Epac1, NCD 10 μM for 3 h, FIG. 3D; for colocalization of syndecan-2 with lipid rafts: SK-Mel-2, 50 μM 8-pMeOPT for 15 min
Method: as §4

[3] = test system: HEMA-LP human melanocytes; assay: Migration assay (Boyden chambers) in HEMA-LP melanocytes; format: cell-based; details: HEMA-LP melanocyte; 50 μM agonist; FIG. 1A
Method: as §1
as §2, with “As a control study, adenovirus vector harboring LacZ was used at the same MOI. Cells were infected with adenovirus for 24 hand subjected to each experiment. In some experiments (For HS production and NDST-1 expression, FIGS. 5B, 5C, 5D, 5E, 5F and 5G), cells were further incubated for 48 h in medium without adenovirus followed by each experiment.” left out
Migration assay—Migration assay was performed using methods previously known in the art using the Boyden chambers (pore size 8 μm, BD Biosciences). […] After mechanical removing of the cells on the upper surface of the membrane with a cotton swab, cells that migrated onto the lower surface of the membrane were counted. […]

SK-Mel-24 = assay: Migration assay (Boyden chambers) in SK-Mel-24; format: cell-based, human; details: FIG. 1A; for cell migration: 50 μM agonist
Method: as §1, §2
as §3, with “Thereafter, the cells were incubated in CO2 incubator at 37° C. for 3 h unless specified. After fixation with 10% formalin neutral solution, cells were stained with Diff-Quick kit (Dade Behring).” left out, “Pictures were taken with a microscope followed by counting migrated cells with Image J software in randomly chosen 10 fields.” left out

[4] = test system: Cloudman S91 melanoma cell line; assay: Migration assay in Cloudman S91 melanoma cells; format: cell-based, mouse; details: 50 μM 8-pMeOPT, FIG. 6B
Method: as §3
Lung colonization assay—To examine the metastatic potential of melanoma cells, lung colonization assay was performed using methods known in the art. […] Two weeks after the injection, the number of metastatic colonies on the surface of the lungs were counted under a dissection microscope. […]

COC(=O)Nc1nc2ccc(C(=O)c3cccs3)cc2[nH]1 [NCD, Nocodazole]
Epac1-induced migration (SK-Mel-2; SK-Mel-2 overexpressing Epac1, NCD 10 μM, FIG. 3F): inhibited Epac-induced migration; also recorded: inhibited Epac1-induced migration
Epac1-induced fine tubulin network formation (tubulin): network formation was inhibited
syndecan-2 expression in lipid raft-rich fraction [1]: decreased expression of sydecan-2 in the lipid rafts-rich fraction; also recorded: decreased syndecan-2 expression in lipid raft-rich fraction
Epac1-induced syndecan-2 colocalization with lipid rafts [2]: decreased Epac1-induced syndecan-2 colocalization with lipid rafts
Epac1-induced syndecan-2 colocalization with lipid rafts ([2]; listed as Nocodazole): decreased the colocalization of syndecan-2 with lipid rafts

CCCC(=O)Nc1ncnc2c1ncn2[C@@H]1O[C@@H]2COP(=O)(O)O[C@H]2[C@H]1O [6-MB-cAMP, N6-Monobutyryladenosine-3′,5′-cyclic monophosphate]
cell migration [3]: did not increase cell migration
cell migration (SK-Mel-2; SK-Mel-2, FIG. 1A): did not increase cell migration; also recorded: neither 6-MB-cAMP nor PKA overexpression, increased melanoma cell migration
cell migration (SK-Mel-24): did not increase cell migration; also recorded: neither 6-MB-cAMP nor PKA overexpression, increased melanoma cell migration

COc1ccc(Sc2nc3c(N)ncnc3n2[C@@H]2O[C@@H]3COP(=O)(O)O[C@H]3[C@H]2OC)cc1 [8-pMeOPT, 8-pMeOPT-2-O-Me-cAMP]
cell migration [3]: not in a melanocyte cell line
cell migration, combination with overexpression of Epacs over Epac overexpression alone (SK-Mel-2; SK-Mel-2, 50 μM 8-pMeOPT, FIG. 1A): further increased cell migration
cell migration (SK-Mel-2; SK-Mel-2, FIG. 1A): increased melanoma cell migration
cell migration, combination with overexpression of Epacs over Epac overexpression alone (SK-Mel-24; 50 μM 8-pMeOPT): such increase was not observed
cell migration (SK-Mel-24): increased melanoma cell migration
colocalization of syndecan-2 with lipid rafts ([2]; FIG. 2A): increased colocalization of syndecan-2 with lipid rafts
colocalization of syndecan-2 with lipid rafts ([2]; FIG. 2A, listed as Epac agonist): increased co-localization of syndecan-2 with lipid rafts
migration [4]: increased migration

cyclodextrin [CXD]
Epac1 overexpression-induced migration (SK-Mel-2; SK-Mel-2 overexpressing Epac1, 10 μg/ml CXD, FIG. 2C): inhibited; also recorded: decreased Epac1 overexpression-induced migration
basal migration (SK-Mel-2; SK-Mel-2 overexpressing LacZ, 10 μg/ml CXD, assay 8 h, FIG. 2C): inhibited
Epac1-overexpression-induced colocalization of syndecan-2 with lipid rafts ([2]; SK-Mel-2 with Epac1 adenovirus, 10 μg/ml CXD, FIG. 2A): decreased Epac-induced syndecan-2 colocalization with lipid-rafts; also recorded: decreased Epac1-overexpression-induced colocalization of syndecan-2 with lipid rafts

[Na+].[O-][Cl+2]([O-])[O-] [sodium chlorate]
Epac-induced migration (SK-Mel-2; sodium chlorate, data not shown): decreased Epac-induced migration

— patent publication US20110060029A1, “METHOD OF TREATING CANCER BY MODULATING EPAC” (priority 2009, published 2011)
